Tests used:
SPA1-Kin [1] = target: T1, SPA1-Kin (Arabidopsis thaliana, UniProt Q9SYX2); assay: in vitro autophosphorylation assay, autoradiogram; type: biochemical; details: 10 mM MgCl2, pH 7.5, 28 °C; labelled compound (gamma-32P)
T1 sequence (Q9SYX2 1-545 limits assumed): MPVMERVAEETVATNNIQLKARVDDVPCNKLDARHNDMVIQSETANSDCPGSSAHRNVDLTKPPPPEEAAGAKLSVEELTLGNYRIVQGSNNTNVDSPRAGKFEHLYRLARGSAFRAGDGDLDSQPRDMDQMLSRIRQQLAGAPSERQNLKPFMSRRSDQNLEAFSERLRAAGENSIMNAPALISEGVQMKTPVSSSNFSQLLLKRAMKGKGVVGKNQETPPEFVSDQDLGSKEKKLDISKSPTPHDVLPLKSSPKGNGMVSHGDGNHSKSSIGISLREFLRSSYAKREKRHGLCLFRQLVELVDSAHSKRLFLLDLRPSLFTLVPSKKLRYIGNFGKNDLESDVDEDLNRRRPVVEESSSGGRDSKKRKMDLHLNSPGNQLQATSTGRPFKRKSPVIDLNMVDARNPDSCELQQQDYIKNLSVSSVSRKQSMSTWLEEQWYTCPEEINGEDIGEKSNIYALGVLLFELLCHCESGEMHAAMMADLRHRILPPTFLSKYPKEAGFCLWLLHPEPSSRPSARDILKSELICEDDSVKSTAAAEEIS

SPA1-Kin [2] = target: T2, SPA1-Kin (Arabidopsis thaliana, UniProt Q9SYX2, R517E, form not given); assay: in vitro autophosphorylation assay, autoradiogram; type: biochemical; details: 10 mM MgCl2, pH 7.5, 28 °C; labelled compound (gamma-32P)
T2 sequence (Q9SYX2 1-545 R517E limits assumed): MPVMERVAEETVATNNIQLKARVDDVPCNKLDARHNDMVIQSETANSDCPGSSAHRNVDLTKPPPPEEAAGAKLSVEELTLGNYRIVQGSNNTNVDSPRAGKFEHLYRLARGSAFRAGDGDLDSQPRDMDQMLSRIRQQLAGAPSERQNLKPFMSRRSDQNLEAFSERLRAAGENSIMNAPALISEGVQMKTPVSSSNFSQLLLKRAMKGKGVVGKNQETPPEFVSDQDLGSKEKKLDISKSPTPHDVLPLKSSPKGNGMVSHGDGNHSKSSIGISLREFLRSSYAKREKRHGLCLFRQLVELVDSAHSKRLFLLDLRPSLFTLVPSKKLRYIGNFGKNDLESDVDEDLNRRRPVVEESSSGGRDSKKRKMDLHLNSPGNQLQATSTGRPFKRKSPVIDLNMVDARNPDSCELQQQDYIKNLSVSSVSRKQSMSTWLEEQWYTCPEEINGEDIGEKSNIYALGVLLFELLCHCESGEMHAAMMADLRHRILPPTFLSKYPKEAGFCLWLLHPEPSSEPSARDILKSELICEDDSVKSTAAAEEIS

[3] = target: T3, phyB-GFP FL purified from yeast (Saccharomyces cerevisiae) (Arabidopsis, UniProt P14713 1-1172, phycocyanobilin (PCB) chromophore assembled); assay: pull-down; in vitro: phytochromes purified from yeast (S. cerevisiae) and GST-PIF1; light-dependent; details: both partners purified
T3 construct: not shown: GFP, C-terminal, kept
T3 sequence (looked up): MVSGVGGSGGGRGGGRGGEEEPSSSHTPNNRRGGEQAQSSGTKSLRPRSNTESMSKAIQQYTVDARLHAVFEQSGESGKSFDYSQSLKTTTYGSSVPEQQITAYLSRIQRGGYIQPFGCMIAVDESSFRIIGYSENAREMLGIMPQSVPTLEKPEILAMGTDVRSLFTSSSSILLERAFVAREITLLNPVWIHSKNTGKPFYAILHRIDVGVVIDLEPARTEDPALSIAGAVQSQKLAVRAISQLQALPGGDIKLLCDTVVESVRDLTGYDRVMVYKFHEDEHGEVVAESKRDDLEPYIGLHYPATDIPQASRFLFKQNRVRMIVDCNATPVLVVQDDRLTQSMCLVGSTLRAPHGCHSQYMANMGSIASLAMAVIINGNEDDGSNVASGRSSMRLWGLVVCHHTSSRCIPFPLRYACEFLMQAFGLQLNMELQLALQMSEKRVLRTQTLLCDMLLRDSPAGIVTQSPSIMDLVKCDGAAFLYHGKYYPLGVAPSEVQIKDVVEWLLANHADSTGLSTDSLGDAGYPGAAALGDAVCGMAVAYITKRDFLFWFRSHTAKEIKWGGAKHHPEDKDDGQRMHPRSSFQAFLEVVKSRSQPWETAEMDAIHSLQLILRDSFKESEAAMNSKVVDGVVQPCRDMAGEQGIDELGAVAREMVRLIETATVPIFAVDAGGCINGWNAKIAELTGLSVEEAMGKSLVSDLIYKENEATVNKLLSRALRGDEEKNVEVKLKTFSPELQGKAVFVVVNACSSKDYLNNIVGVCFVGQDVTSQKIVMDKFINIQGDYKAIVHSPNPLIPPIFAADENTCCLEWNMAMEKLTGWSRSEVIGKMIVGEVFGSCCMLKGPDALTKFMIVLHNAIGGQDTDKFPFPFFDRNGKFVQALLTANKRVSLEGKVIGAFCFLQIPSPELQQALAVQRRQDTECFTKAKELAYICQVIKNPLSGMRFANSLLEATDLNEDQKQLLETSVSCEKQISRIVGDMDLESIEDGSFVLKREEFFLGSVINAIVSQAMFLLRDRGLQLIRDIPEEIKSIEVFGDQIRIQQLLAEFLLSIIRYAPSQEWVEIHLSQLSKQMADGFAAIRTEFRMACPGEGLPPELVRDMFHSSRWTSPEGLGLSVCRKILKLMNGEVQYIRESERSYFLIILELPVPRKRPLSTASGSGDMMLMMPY

In the case of `Nc1ncnc2c1ncn2[C@@H]1O[C@H](COP(=O)(O)OP(=O)(O)OP(=O)(O)O)[C@@H](O)[C@H]1O` [ATP], the “in vitro autophosphorylation assay, autoradiogram” value (SPA1-Kin [1]) is reported as “The purified SPA1-Kin domain displayed autophosphorylation activity in a protein concentration-dependent manner” and the “in vitro autophosphorylation assay, autoradiogram” value (SPA1-Kin [2]) is reported as “significantly reduced auto-phosphorylation activity for the SPA1-Kin^R517E (mSPA1) mutant”.

B1: GST-PIF1-strep (natural protein, Arabidopsis, UniProt Q8GZM7 1-478, looked up)
chain: MHHFVPDFDTDDDYVNNHNSSLNHLPRKSITTMGEDDDLMELLWQNGQVVVQNQRLHTKKPSSSPPKLLPSMDPQQQPSSDQNLFIQEDEMTSWLHYPLRDDDFCSDLLFSAAPTATATATVSQVTAARPPVSSTNESRPPVRNFMNFSRLRGDFNNGRGGESGPLLSKAVVRESTQVSPSATPSAAASESGLTRRTDGTDSSAVAGGGAYNRKGKAVAMTAPAIEITGTSSSVVSKSEIEPEKTNVDDRKRKEREATTTDETESRSEETKQARVSTTSTKRSRAAEVHNLSERKRRDRINERMKALQELIPRCNKSDKASMLDEAIEYMKSLQLQIQMMSMGCGMMPMMYPGMQQYMPHMAMGMGMNQPIPPPSFMPFPNMLAAQRPLPTQTHMAGSGPQYPVHASDPSRVFVPNQQYDPTSGQPQYPAGYTDPYQQFRGLHPTQPPQFQNQATSYPSSSRVSSSKESEDHGNHTTG
notes: source: E. coli BL21(DE3), purified (Strep-Tactin Sepharose); not shown: GST, N-terminal, kept; Strep tag, C-terminal, kept
B1: binds [3].

Source: article PMC6746701, “A phyB-PIF1-SPA1 kinase regulatory complex promotes photomorphogenesis in Arabidopsis” (Nature Communications, 2019)
